In ChEMBL document CHEMBL1131705, “A highly stereoselective synthesis of plaunotol and its thiourea derivatives as potent antibacterial agents against Helicobacter pylori” (1999):
≈ marks a conversion by molar mass, not a printed value.

How the values were obtained:
Assay type in all cases: functional
[1] = test system: Helicobacter pylori; experiment: In vitro antibacterial activity against Helicobacter pylori (No. 7)
[2] = test system: Helicobacter pylori; experiment: In vitro antibacterial activity against Helicobacter pylori (CPY 2052)
[3] = test system: Helicobacter pylori; experiment: In vitro antibacterial activity against Helicobacter pylori (NCTC 11637)
[4] = test system: Helicobacter pylori; experiment: Antibacterial activity against Helicobacter pylori (No. 7)
[5] = test system: Helicobacter pylori; experiment: Antibacterial activity against Helicobacter pylori (CPY 2052)
[6] = test system: Helicobacter pylori; experiment: Antibacterial activity against Helicobacter pylori (NCTC 11637)

Row | Structure (SMILES) | MIC [1] | MIC [2] | MIC [3] | MIC [4] | MIC [5] | MIC [6]
1 | CC(C)=CCC/C(C)=C/CC/C(=C/CC/C(C)=C/C/N=C(\S)NCCc1ccccc1)C/N=C(\S)NCCc1ccccc1 | 6.25 µg/mL (≈ 9.9 µM) | 0.78 µg/mL (≈ 1.24 µM) | 6.25 µg/mL (≈ 9.9 µM) |  |  | 
2 | CC1(C)S[C@@H]2[C@H](NC(=O)[C@H](N)c3ccc(O)cc3)C(=O)N2[C@H]1C(=O)O [AMOXICILLIN] | 0.1 µg/mL (≈ 0.274 µM) | 0.05 µg/mL (≈ 0.137 µM) | 0.025 µg/mL (≈ 0.0684 µM) |  |  | 
3 | CC(C)=CCC/C(C)=C/CC/C(=C/CC/C(C)=C/CO)CO [PLAUNOTOL] |  |  |  | 6.25 µg/mL (≈ 20.4 µM) | 6.25 µg/mL (≈ 20.4 µM) | 12.5 µg/mL (≈ 40.8 µM)

Second part, the compound after the results:

Row | MIC [1] | MIC [2] | MIC [3] | MIC [4] | MIC [5] | MIC [6] | Structure (SMILES)
4 | ≤ 0.1 µg/mL | ≤ 0.1 µg/mL | ≤ 0.1 µg/mL |  |  |  | CC(C)=CCC/C(C)=C/CC/C(=C/CC/C(C)=C/C/N=C(\S)NCCc1ccccc1)CO
5 | 1.56 µg/mL (≈ 3.33 µM) | 1.56 µg/mL (≈ 3.33 µM) | 25 µg/mL (≈ 53.3 µM) |  |  |  | CC(C)=CCC/C(C)=C/CCC(=CCCC(C)=CCO)C/N=C(\S)NCCc1ccccc1
